Results reported in publication PMC7915902, “Preclinical Evaluation of [^18F]FACH in Healthy Mice and Piglets: An ^18F-Labeled Ligand for Imaging of Monocarboxylate Transporters with PET” (International Journal of Molecular Sciences, 2021).

What was measured:
MCTs [1] = assay: Autoradiographic saturation binding (homologous displacement) in mouse kidney cryosections
Protocol: Cryosections from the mouse kidney (10 µm) were cut on a microtome (Microm HM560, Thermo Scientific Microm, Fisher Scientific GmbH, Schwerte, Germany), mounted on glass slides (SuperFrost, Thermo Scientific Menzel, Fisher Scientific GmbH), dried for two hours at room temperature, and stored at −25 °C. Before the binding experiment, the tissue slices were dried under a stream of cold air, pre-incubated with PBS (pH 7.4) for 15 min at room temperature and dried again before incubation with PBS containing [^18F]FACH (1.2 nM) without (total binding) and with different concentrations of FACH-Na (10 µM–0.1 nM; homologous competition) for 60 min. Specific binding to MCTs of [^18F]FACH in cryosections of mouse kidney was determined after co-incubation of 1 nM [^18F]FACH with vehicle or 300 nM α-CCa-Na or 300 nM reference compound (homologous competition).
The incubation was terminated by washing with ice-cold buffer (50 mM TRIS-HCl, pH 7.4) twice for two minutes followed by dipping in ice-cold demineralized water for 5 s and drying under a stream of cold air. The dried sections along with activity standards (1 µL aliquots of different dilutions of the incubation solution dried on microscopic slides) were exposed to phosphor imaging plates (FujiFilm Co., Tokyo, Japan) transferred after 120 min to a phosphor imager (HD-CR 35 Bio; Dürr NDT GmbH & Co. KG, Bietigheim-Bissingen, Germany). Regions of interest (ROIs) were drawn manually or automatically on the tissue slices or standard spots, and the pixelwise results converted to Bq/mg wet weight. Non-linear regression analysis was performed with GraphPad Prism (v.3.0 GraphPad Software, San Diego, CA, USA). KD and Bmax values were calculated by the simplified Cheng and Prusoff equation (http://www3.uah.es/farmamol/Public/GraphPad/radiolig.htm, accessed on 5 February 2021):(1) KD=Ki=IC50−Radioligand (M) (2) Bmax=Top−Bottom/Radioligand (M)/(KD+Radioligand (M))

MCTs [2] = format: in vivo, piglet; conditions: pig, in vivo
Protocol: The piglets (n = 6) were inititally anaesthetised with intramuscular injections of stresnil and ursotamin, and anaesthesia was maintained with intravenous ursotamin and midazolam, as required. The hematocrit was measured in an ear vein blood sample collected just prior to imaging. Either saline (n = 3) or 25 mg/kg α-CCA-Na (n = 3) in saline was administrated ten min before i.v. administration of [^18F]FACH (261–327 MBq, corresponding to 218–852 pmol/kg) via an ear vein. Imaging was performed with a simultaneous hybrid PET/MR system (mMR Biograph; Siemens, Erlangen, Germany) equipped with dedicated phased-array surface. PET data were reconstructed into a 128 × 128 matrix (voxel size: 1.40 × 1.40 × 2.03 mm^3) using the built-in OSEM3D algorithm with eight iterations, 21 subsets, and a 3-mm Gaussian filter. The attenuation and decay corrected dynamic sequence consisted of 32 frames as follows: 1 × 15, 11 × 30, 1 × 45, 5 × 60, 1 × 90, 5 × 120, 1 × 180, 4 × 240, 1 × 300, 2 × 360 s, whereas activity concentrations in VOIs are represented in units of SUV or percentage of injected dose (%/ID). After completing the dynamic PET recording, piglets were euthanized with an i.v. overdose of T61 (Intervet Deutschland GmbH, Unterschleißheim, Germany) and tissues were sampled for radio-metabolism studies in selected animals.
The analysis of reconstructed datasets was performed with PMOD software (v4.103, PMOD Technologies LLC, Zurich, Switzerland).
Data are shown in mean ± standard deviation (SD). Group differences were tested by Student’s t-test, with p < 0.05 designated as significant. Area Under the Curves (AUCs) and corresponding 95% confidence intervals (CI95%s) were calculated with GraphPad Prism (v.8.2) following the assumptions described by Gagnon et al..

MCTs [3] = assay: Compartmental kinetic modelling of PET data in mice; format: in vivo, mouse; conditions: for K1 / VT / k2: 1-TCM; for K1 (representative 1-TCM curve fit) / k2 (representative 1-TCM curve fit): control study, Figure S12
Protocol: Table 4 includes the results of 1-tissue-compartment kinetic modelling (1-TCM) of [^18F]FACH in the kidney cortex and the liver of the control and pre-treated mouse groups (α-CCA-Na and reference compound). […] The BPND was estimated as the ratio of [VT(control)/VT(pre-treatment)] − 1.
Kinetic analysis of reconstructed datasets was performed with PMOD software. First, image derived arterial input functions (IDIFs) were obtained from the left ventricle in mice and from an artery close to the kidney in piglet studies. IDIFs were corrected for partial volume effects, plasma fraction from hematocrit values (individually determined for each piglet directly before PET imaging; for mice set to 0.51 according to CD-1 Mouse Hematology sheet from Charles River Laboratories, 2011) and radio-metabolites (measured for piglets, and set to zero for mice). Tri-exponential metabolite-corrected fitted input functions were used for one and two tissue compartment modelling (1-TCM/2-TCM) of time activity curves (TACs) in tissue volumes of interest (VOIs). For both species the specific blood volume was set to 0.15 mL g^−1 in the kidney cortex and 0.128 mL g^−1 in the liver, according to published values.

[4] = Metabolism and renal excretion of [18F]FACH in mice (radio-HPLC)

Work on CCCN(CCC[18F])c1ccc(/C=C(\C#N)C(=O)O)c(OC)c1 [[^18F]FACH, (E)-2-cyano-3-{4-[(3-[^18F]fluoropropyl)(propyl)amino]-2-methoxyphenyl}acrylic acid] yielded a Kd (MCTs [1]; mouse kidney cortex (Co) cryosections) of 0.118 ± 0.012 µM, a Kd (MCTs [1]; mouse kidney inner medulla (IM) cryosections) of 0.265 µM and a Kd (MCTs [1]; mouse kidney outer medulla (OM) cryosections) of 0.212 µM. The “peak TAC SUV kidney cortex” value (MCTs [2]) was 15.3 ± 2.5, the “peak TAC SUV kidney medulla” value (MCTs [2]) was 66.1 ± 27.7 and the “peak TAC SUV liver” value (MCTs [2]) was 13.2 ± 2.7. The K1 (MCTs [3]; kidney cortex, control) was 0.13 ± 0.06 mL/g/min, the VT (MCTs [3]; kidney cortex, control) was 8.60 ± 4.55 mL/g and the k2 (MCTs [3]; kidney cortex, control) was 0.02 ± 0.01 min⁻¹. The “K1 (2-TCM)” value (MCTs [3]; kidney cortex, 2-TCM, control) was 0.28±0.24 ml/ccm/min, the “VND (2-TCM)” value (MCTs [3]; kidney cortex, 2-TCM, control) was 1.77±2.49 ml/ccm and the “k2 (2-TCM)” value (MCTs [3]; kidney cortex, 2-TCM, control) was 1.54 ± 2.43 min⁻¹. For the same compound, the “k3 (2-TCM)” value (MCTs [3]; kidney cortex, 2-TCM, control) was 0.77 ± 0.78 min⁻¹, the “k4 (2-TCM)” value (MCTs [3]; kidney cortex, 2-TCM, control) was 0.02 ± 0.02 min⁻¹ and the “K1 (representative 1-TCM curve fit)” value (MCTs [3]; kidney cortex) was 0.16 mL/g/min. For the same compound, the “k2 (representative 1-TCM curve fit)” value (MCTs [3]; kidney cortex) was 0.04 min⁻¹, the K1 (MCTs [3]; liver, control) was 0.49 ± 0.24 mL/g/min and the VT (MCTs [3]; liver, control) was 6.47 ± 2.49 mL/g. For the same compound, the k2 (MCTs [3]; liver, control) was 0.08 ± 0.02 min⁻¹, the BPND (MCTs [3]; liver, (VT(control)/VT(pre-treated)) − 1) was 0.04 and the “K1 (representative 1-TCM curve fit)” value (MCTs [3]; liver) was 0.40 mL/g/min. The “k2 (representative 1-TCM curve fit)” value (MCTs [3]; liver) was 0.09 min⁻¹, the “radioactivity in bladder/urine (renal excretion)” value ([4]; mice, 60 min p.i., control) was 0.51 ± 0.39 %ID and the “intact [18F]FACH in plasma” value ([4]; mouse plasma, 30 min p.i.) was “More than 99%”. The “[18F]FACH (parent) in urine” value ([4]; mouse urine) was under 5%.
